Patent US20200261434A1, “IDH1 INHIBITORS FOR THE TREATMENT OF HAEMATOLOGICAL MALIGNANCIES AND SOLID TUMORS” (Agios Pharmaceuticals, Inc., priority 2016, published 2020)
Positions count from the first letter of the chain named. In brackets after ≈: the same amount, converted by molar mass.

Tests used:
[1] = Phase 1/2 clinical study AG221-C-001, safety; type: in vivo, human; conditions: 100 mg
Text: Toxicity severity will be graded according to the National Cancer Institute Common Terminology Criteria for Adverse Events (NCI CTCAE) Version 4.03. A DLT is defined as outlined below.
Monitoring of AEs, including determination of DLTs, serious adverse events (SAEs), and AEs leading to discontinuation; safety laboratory parameters; physical examination findings; vital signs; 12-lead ECGs; LVEF; and ECOG PS.
The severity of AEs will be assessed by the NCI CTCAE, Version 4.03.

[2] = biological target: T1, IDH2 R140Q (Homo sapiens, UniProt P48735, R140Q); experiment: Phase 1/2 clinical study AG221-C-001, pharmacodynamic response (2-HG plasma levels), R140Q subjects; type: in vivo; conditions: most subjects with R140Q mutation, all doses, by Day 1 of Cycle 2
T1 construct: endogenous in cells; host or cells: malignant haematologic cells of human subjects (in vivo; 2-HG measured in plasma)
T1 sequence (P48735 40-452 R140Q): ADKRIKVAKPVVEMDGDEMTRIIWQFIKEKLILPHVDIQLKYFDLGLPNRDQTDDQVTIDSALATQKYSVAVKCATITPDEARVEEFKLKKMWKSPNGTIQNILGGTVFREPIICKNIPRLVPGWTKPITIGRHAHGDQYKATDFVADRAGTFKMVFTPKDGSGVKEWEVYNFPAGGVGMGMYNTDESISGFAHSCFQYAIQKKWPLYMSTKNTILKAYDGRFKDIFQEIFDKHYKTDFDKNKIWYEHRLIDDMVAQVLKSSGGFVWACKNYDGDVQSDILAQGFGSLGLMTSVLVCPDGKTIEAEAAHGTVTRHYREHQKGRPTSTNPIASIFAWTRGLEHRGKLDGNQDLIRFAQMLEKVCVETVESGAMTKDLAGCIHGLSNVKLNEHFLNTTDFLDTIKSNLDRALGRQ
Text: (§1) Three days prior to the start of daily dosing of AG-221 (Day −3), the first 3 subjects enrolled in each cohort in the dose escalation phase and the first 15 subjects enrolled in each arm of Part 1 Expansion will receive a single dose of AG-221 in clinic and have serial blood and urine samples obtained for determination of blood and urine concentrations of AG-221, its metabolite AGI-16903, 2-HG, and α-KG. A full 72-hour PK/PD profile will be conducted: subjects will be required to remain at the study site for 10 hours on Day −3 and return on Days −2, −1, and 1 for 24-, 48-, and 72-hour samples, respectively. During the in-clinic period on Day −3, clinical observation and serial 12-lead ECGs and vital signs assessments will be conducted.
(§2) Subjects in the dose escalation phase and Part 1 Expansion also will undergo PK/PD assessments over a 10-hour period on C1D15, C2D1, and C4D1. […] These subjects will have urine collected for PK/PD evaluation at screening; prior to dosing on C1D15, C2D1 and Day 1 of all cycles thereafter; and at the End of Treatment visit. Available bone marrow biopsy samples also will be assessed for 2-HG and α-KG levels.
(§3) Serial blood sampling for determination of concentration-time profiles of COMPOUND 1 and its metabolite (6-(6-(trifluoromethyl)pyridin-2-yl)-N2-(2-(trifluoromethyl)pyridin-4-yl)-1,3,5-triazine-2,4-diamine). […]

[3] = tested on: advanced hematologic malignancies with an IDH2 mutation; experiment: Phase 1/2 clinical study AG221-C-001, clinical activity (overall response rate); type: in vivo, human; conditions: 44 subjects treated at 100 mg QD, preliminary efficacy data
Text: Response to treatment and treatment decisions in all subjects will be determined by the Investigators based on modified International Working Group (IWG) response criteriaor other appropriate response criteria for the malignancy under study.
Overall response rate (ORR), the primary efficacy endpoint, is defined as the rate of responders including complete remission (CR), CR with incomplete platelet recovery (CRp), marrow CR (mCR) (morphologic leukemia-free state [MLFS] for subjects with AML), CR with incomplete hematologic recovery (CRi), and partial remission (PR). Other measures of clinical activity including complete remission rate (CRR), duration of remission/response, event-free survival, overall survival, and time to remission/response will be summarized.
For Phase 1 Dose Escalation/Part 1 Expansion, the efficacy analysis of response rates as assessed by the site Investigators using modified International Working Group (IWG) response criteria will be conducted in Full Analysis Set for each dose level, expansion arm, and overall if appropriate.

[4] = biological target: T2, IDH2 R172K (Homo sapiens, UniProt P48735, R172K); experiment: Phase 1/2 clinical study AG221-C-001, pharmacodynamic response (2-HG), R172K subjects; type: in vivo; conditions: subjects with R172K mutation
T2 construct: endogenous in cells; host or cells: malignant haematologic cells of human subjects (in vivo; 2-HG measured in blood)
T2 sequence (P48735 40-452 R172K): T1 sequence (P48735 40-452 R140Q) with Q101R, R133K
Text: as §1, §2, §3

[5] = solubility in fasted state simulated intestinal fluid (FASSIF); type: physicochemical; conditions: pH 6.1, at 4 hours

Row | Structure (SMILES) | safety profile, including ≥Grade 3 [1] | inhibition of 2-HG plasma levels [2] | overall response rate [3] [%] | inhibition of 2-HG and exposure, dependence on dose [4] | solubility at 4 h [5] [µg/mL]
1 | CC(C)(O)CNc1nc(Nc2ccnc(C(F)(F)F)c2)nc(-c2cccc(C(F)(F)F)n2)n1 [COMPOUND 1, 2-methyl-1-[(4-[6-(trifluoromethyl)pyridin-2-yl]-6-{[2-(trifluoromethyl)pyridin-4-yl]amino}-1,3,5-triazin-2-yl)amino]propan-2-ol] | consistent with that of lower doses | up to 98% | 36.4 | Increasing dose is associated with higher exposure and inhibition of 2-HG | 
2 | N#Cc1ccnc(N2C(=O)CC[C@H]2C(=O)N(c2cncc(F)c2)[C@H](C(=O)NC2CC(F)(F)C2)c2ccccc2Cl)c1 [Form 2, (S)—N—((S)-1-(2-chlorophenyl)-2-((3,3-difluorocyclobutyl)amino)-2-oxoethyl)-1-(4-cyanopyridin-2-yl)-N-(5-fluoropyridin-3-yl)-5-oxopyrrolidine-2-carboxamide] |  |  |  |  | ~18 (≈ 30.9 µM)
